Patent publication US20220315554A1, “COMPOUNDS COMPRISING A […] LIGAND AND USE THEREOF” (priority 2019, published 2022)
Numbered stars: 1 amine (or outer) side, 2 acyl side, 3 side chain; on linkers, the order of the positions; unused ones are H or OH. Bridge positions count the residues as written; N and C are the ends. Peptide text beside a SMILES is read from it. * marks the point of attachment. X1 = O=C(O)CN1CCN(CC(=O)O)CCN(CC(=O)N2CCN(Cc3cc(C[*:1])cc(C[*:2])c3)CC2)CCN(CC(=O)O)CC1; Hexanoyl = CCCCCC(=O)*

Assays:
[1] = Plasma stability assay, human plasma; type: in vitro ADME; settings: 24 h incubation, 37° C., read-out: % intact compound remaining after incubation, Human plasma
[2] = Plasma stability assay, mouse plasma; type: in vitro ADME; settings: 24 h incubation, 37° C., read-out: % intact compound remaining after incubation, Mouse plasma
[3] = molecular target: T1, FAP-expressing human WI-38 fibroblasts (Homo sapiens, UniProt Q12884); test: Competitive FACS binding assay; settings: pIC50 Category (FACS), competition with 3 nM Cy5-labeled compound, WI-38 fibroblasts, 4° C., 1 hour
T1 construct: FAP-expressing human WI-38 fibroblasts (ECACC) were cultured in EMEM; host or cells: WI-38 human fibroblasts
T1 sequence (Q12884 1-760): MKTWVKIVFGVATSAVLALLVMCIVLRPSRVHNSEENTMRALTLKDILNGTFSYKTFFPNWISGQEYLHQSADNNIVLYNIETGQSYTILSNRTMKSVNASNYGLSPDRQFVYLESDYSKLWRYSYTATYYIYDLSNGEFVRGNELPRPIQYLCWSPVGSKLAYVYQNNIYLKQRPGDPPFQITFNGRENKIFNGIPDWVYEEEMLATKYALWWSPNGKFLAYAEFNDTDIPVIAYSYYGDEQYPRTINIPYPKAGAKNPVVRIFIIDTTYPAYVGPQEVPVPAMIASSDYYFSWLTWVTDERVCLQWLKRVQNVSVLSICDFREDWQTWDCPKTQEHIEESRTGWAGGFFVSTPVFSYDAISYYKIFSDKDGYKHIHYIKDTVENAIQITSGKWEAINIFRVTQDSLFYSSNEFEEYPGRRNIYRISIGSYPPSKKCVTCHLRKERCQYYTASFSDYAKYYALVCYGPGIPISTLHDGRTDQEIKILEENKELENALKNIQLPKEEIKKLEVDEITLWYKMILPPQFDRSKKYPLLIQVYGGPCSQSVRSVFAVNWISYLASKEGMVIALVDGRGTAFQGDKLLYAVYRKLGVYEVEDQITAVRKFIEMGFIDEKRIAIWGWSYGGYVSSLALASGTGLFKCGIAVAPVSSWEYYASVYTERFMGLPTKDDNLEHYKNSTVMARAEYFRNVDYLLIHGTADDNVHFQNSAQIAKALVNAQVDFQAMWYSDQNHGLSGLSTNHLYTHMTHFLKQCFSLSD
Method: Cells were analyzed in an Attune NxT flow cytometer. […]

[4] = molecular target: T2, Human recombinant FAP (Homo sapiens, UniProt Q12884); test: Surface plasmon resonance (Biacore) assay; type: binding
T2 sequence (Q12884 1-760): T1 sequence (Q12884 1-760)

[5] = molecular target: T3, recombinant human PREP (Homo sapiens, UniProt P48147); test: PREP protease activity assay; type: biochemical
T3 construct: purchased R&D systems 4308-SE
T3 sequence (P48147 1-710): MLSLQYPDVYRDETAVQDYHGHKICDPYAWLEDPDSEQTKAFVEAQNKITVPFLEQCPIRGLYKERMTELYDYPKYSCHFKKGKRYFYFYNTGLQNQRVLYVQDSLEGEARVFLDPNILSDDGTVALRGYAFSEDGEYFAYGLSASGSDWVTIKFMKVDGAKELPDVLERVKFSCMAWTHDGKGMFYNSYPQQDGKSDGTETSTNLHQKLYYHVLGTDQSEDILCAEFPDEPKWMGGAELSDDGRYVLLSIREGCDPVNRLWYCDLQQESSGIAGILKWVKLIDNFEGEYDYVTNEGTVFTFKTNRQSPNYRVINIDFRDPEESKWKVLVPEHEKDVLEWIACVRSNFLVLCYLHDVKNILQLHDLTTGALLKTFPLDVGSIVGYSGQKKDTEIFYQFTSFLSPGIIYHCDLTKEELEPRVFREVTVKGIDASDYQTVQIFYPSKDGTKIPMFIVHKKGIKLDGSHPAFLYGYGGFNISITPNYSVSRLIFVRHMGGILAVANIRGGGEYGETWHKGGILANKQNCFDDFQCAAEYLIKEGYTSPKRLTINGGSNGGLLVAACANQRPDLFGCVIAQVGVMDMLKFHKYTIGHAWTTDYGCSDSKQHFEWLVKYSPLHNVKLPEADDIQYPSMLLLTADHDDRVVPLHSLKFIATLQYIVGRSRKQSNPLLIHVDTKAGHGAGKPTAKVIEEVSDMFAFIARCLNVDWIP

[6] = molecular target: T4, Recombinant human DPP4 (Homo sapiens, UniProt P27487); test: DPP4 protease activity assay; type: biochemical
T4 construct: purchased R&D systems 9168-SE

[7] = test system: Na+ channel (site 2); test: SafetyScreen44: Na+ channel (site 2) (antagonist radioligand); type: binding; settings: 10 μM
[8] = molecular target: T5, proteases (Hepatitis C virus genotype 1a, UniProt P27958, D1194V); test: biochemical; settings: read-out: Percentage inhibition (%)
T5 construct: BPS Biosciences (contract assay)

[9] = molecular target: T6, proteases (Hepatitis C virus genotype 1b, UniProt P26663); test: biochemical; settings: read-out: Percentage inhibition (%)
T6 construct: BPS Biosciences (contract assay)

[10] = molecular target: T7, proteases (Hepatitis C virus genotype 1b, UniProt P26663, D1194V); test: biochemical; settings: read-out: Percentage inhibition (%)
T7 construct: BPS Biosciences (contract assay)

[11] = molecular target: T8, proteases (Hepatitis C virus genotype 1b, UniProt P26663, R1181K); test: biochemical; settings: read-out: Percentage inhibition (%)
T8 construct: BPS Biosciences (contract assay)

[12] = molecular target: T9, proteases (Hepatitis C virus genotype 1b, UniProt P26663, R1181Q); test: biochemical; settings: read-out: Percentage inhibition (%)
T9 construct: BPS Biosciences (contract assay)

[13] = test system: BZD (central); settings: 10 μM
[14] = test system: NMDA; settings: 10 μM
[15] = test system: Ca2+ channel (L, dihydropyridine site); settings: 10 μM
[16] = test system: KV channel; settings: for % Inhibition of Specific Binding: 10 μM
[17] = in vitro; settings: rat, plasma
[18] = molecular target: hERG potassium channel (Homo sapiens, UniProt Q12809); test: in vitro
[19] = molecular target: AR (h) (Homo sapiens, UniProt P10275, T878A); test: biochemical; settings: read-out: % Inhibition of Specific Binding
[20] = molecular target: T2, Human recombinant FAP; test: FRET-based FAP protease activity assay; type: biochemical; design: purchased R&D systems 3715-SE; settings: pIC50 Category (Activity), recombinant human FAP, FRET substrate, 37° C.
[21] = in vivo; settings: rat, plasma, intravenous; for Vd: rat plasma
[22] = test system: HEK-FAP tumors; test: Efficacy study HEK-FAP tumors; settings: throughout the study
[23] = test system: Sarc4809 PDX tumors; test: Efficacy study sarcoma Sarc4809 PDX model; settings: throughout the study

Compound: CCCCCC(=O)N[C@H]1CSCc2cc(cc(CN3CCN(C(=O)CN4CCN(CC(=O)O)CCN(CC(=O)O)CCN(CC(=O)O)CC4)CC3)c2)CSC[C@@H](C(=O)N[C@@H](CC(=O)O)C(N)=O)NC(=O)[C@H](Cc2ccccc2)NC(=O)[C@H](CCC(N)=O)NC(=O)[C@H]([C@@H](C)O)NC(=O)[C@@H]2CCCN2C(=O)[C@@H]2CCCN2C1=O [3BP-3407, Hex-[Cys(tMeBn(DOTA-PP))-Pro-Pro-Thr-Gln-Phe-Cys]-Asp-NH2] (Hexanoyl-CPPTQFCD-NH2; linker 1-7 via X1)
- remaining at 24 h, 9.8 µM [1]: 100%
- remaining at 24 h, 9.8 µM [2]: 79%
- IC50 [3]: < 10 nM
- Kd [4]: < 10 nM
- IC50 [5]: > 1000 nM
- IC50 [6]: > 1000 nM
- % Inhibition of Specific Binding [7]: −7%
- inhibition at 1 µM [8]: 1%
- inhibition at 10 µM [8]: -68%
- inhibition at 1 µM [9]: 1%
- inhibition at 10 µM [9]: 5%
- inhibition at 1 µM [10]: 1%
- inhibition at 10 µM [10]: -6%
- inhibition at 1 µM [11]: -2%
- inhibition at 10 µM [11]: 5%
- inhibition at 1 µM [12]: 0%
- inhibition at 10 µM [12]: 2%
- % Inhibition of Specific Binding [13]: −9%
- % Inhibition of Specific Binding [14]: 9%
- % Inhibition of Specific Binding [15]: 42%
- % Inhibition of Specific Binding [16]: −5%
- remaining at 24 h, 9.8 µM [17]: 100%
- inhibition at 10 µM [18]: 2%
- inhibition at 10 µM [19]: 3%
- IC50 [20]: < 10 nM

Compound: CCCCCC(=O)N[C@H]1CSCc2cc(CSCCNC(=O)CN3CCN(CC(=O)O)CCN(CC(=O)O)CCN(CC(=O)O)CC3)cc(c2)CSC[C@@H](C(=O)O)NC(=O)[C@H](Cc2ccccc2)NC(=O)[C@H](CCC(N)=O)NC(=O)[C@H]([C@@H](C)O)NC(=O)[C@@H]2CCCN2C(=O)[C@@H]2CCCN2C1=O [3BP-3554, Hex-[Cys(tMeBn(DOTA-AET))-Pro-Pro-Thr-Gln-Phe-Cys]-OH]
- remaining at 24 h, 9.8 µM [1]: 100%
- IC50 [3]: < 10 nM
- Kd [4]: < 10 nM
- IC50 [5]: > 1000 nM
- IC50 [6]: > 1000 nM
- % Inhibition of Specific Binding [7]: 14%
- inhibition at 1 µM [8]: -39%
- inhibition at 1 µM [9]: -5%
- inhibition at 10 µM [9]: -9%
- inhibition at 1 µM [10]: -2%
- inhibition at 10 µM [10]: -17%
- inhibition at 1 µM [11]: -1%
- inhibition at 10 µM [11]: 0%
- inhibition at 1 µM [12]: 0%
- inhibition at 10 µM [12]: -5%
- % Inhibition of Specific Binding [13]: 5%
- % Inhibition of Specific Binding [14]: 1%
- % Inhibition of Specific Binding [15]: 54%
- % Inhibition of Specific Binding [16]: 4%
- remaining at 24 h, 9.8 µM [17]: 100%
- AUC(0-inf) ([21]; 2 nmol/kg): 0.0081 µM·h
- C0 ([21]; 2 nmol/kg): 10.3 nM
- clearance ([21]; 2 nmol/kg): 4.13 mL/min/kg
- half-life ([21]; 2 nmol/kg): 54 min
- Vd ([21]; 2 nmol/kg, Vss, 2 nmol/kg): 0.28 L/kg
- Vd ([21]; 2 nmol/kg, Vz): 0.32 L/kg
- AUC(0-inf) ([21]; 20 nmol/kg): 0.069 µM·h
- C0 ([21]; 20 nmol/kg): 111 nM
- clearance ([21]; 20 nmol/kg): 4.85 mL/min/kg
- half-life ([21]; 20 nmol/kg): 50 min
- Vd ([21]; 20 nmol/kg, Vss, 20 nmol/kg): 0.3 L/kg
- Vd ([21]; 20 nmol/kg, Vz): 0.35 L/kg
- AUC(0-inf) ([21]; 200 nmol/kg): 0.726 µM·h
- C0 ([21]; 200 nmol/kg): 1480 nM
- clearance ([21]; 200 nmol/kg): 4.58 mL/min/kg
- half-life ([21]; 200 nmol/kg): 63 min
- Vd ([21]; 200 nmol/kg, Vss, 200 nmol/kg): 0.17 L/kg
- Vd ([21]; 200 nmol/kg, Vz): 0.42 L/kg
- inhibition at 10 µM [18]: 6%
- inhibition at 10 µM [19]: -5%
- IC50 [20]: < 10 nM

Compound: CCCCCC(=O)N[C@H]1CSCc2cc(CSCCNC(=O)CN3CCN4CCN5CCN(CC3)CC(=O)[O][Lu]([O]C(=O)C4)[O]C(=O)C5)cc(c2)CSC[C@@H](C(=O)O)NC(=O)[C@H](Cc2ccccc2)NC(=O)[C@H](CCC(N)=O)NC(=O)[C@H]([C@@H](C)O)NC(=O)[C@@H]2CCCN2C(=O)[C@@H]2CCCN2C1 [3BP-3624, Lutetium-Complex of Hex-[Cys(tMeBn(DOTA-AET))-Pro-Pro-Thr-Gln-Phe-Cys]-OH]
- remaining at 24 h, 9.8 µM [1]: 100%
- remaining at 24 h, 9.8 µM [2]: 100%
- IC50 [3]: < 10 nM
- Kd [4]: < 10 nM
- remaining at 24 h, 9.8 µM [17]: 100%
- IC50 [20]: < 10 nM

Compound: CCCCCC(=O)N[C@H]1CSCc2cc(CSCCNC(=O)CN3CCN(CC(=O)O)CCN(CC(=O)O)CCN(CC(=O)O)CC3)cc(c2)CSC[C@@H](C(=O)O)NC(=O)[C@H](Cc2ccccc2)NC(=O)[C@H](CCC(N)=O)NC(=O)[C@H]([C@@H](C)O)NC(=O)[C@@H]2CCCN2C(=O)[C@@H]2CCCN2C1=O [^177Lu-3BP-3554, metal not drawn]
- treatment-related body weight loss [22]: No treatment-related body weight loss
- treatment-related body weight loss (BWL) [23]: No treatment-related body weight loss

Compound: alpha-dendrotoxin
- Ki ([16]; read-out: Ki Ref, reference compound (positive control)): 0.097 nM
